Assays:
Format in all cases: cell-based
TLR2 = TLR2 (Homo sapiens, UniProt O60603); experiment: Activity on TLR2; settings: concentrations up to 25 μM
Method: (§1) The half-maximal effective concentration (EC50) for VTX-2337 activation of TLR8 and TLR7 was assessed in peripheral blood mononuclear cells (PBMCs) from 15 healthy donors and also in HEK293 cells transfected with TLR8 or TLR7 and an NF-κB driven reporter gene. […] Also it was observed that VTX-2337 had no activity on TLR2, TLR3, TLR4, TLR5, TLR6, or TLR9 at concentrations up to 25 μM.

TLR8 = target: T1, TLR8 (Homo sapiens, UniProt Q9NR97); experiment: HEK293 cells transfected with TLR8 and NF-κB driven reporter gene; settings: HEK293 transfectants
T1 construct: assessed in peripheral blood mononuclear cells (PBMCs) from 15 healthy donors; endogenous in cells; host or cells: PBMCs from 15 healthy donors
T1 sequence (Q9NR97 27-1041): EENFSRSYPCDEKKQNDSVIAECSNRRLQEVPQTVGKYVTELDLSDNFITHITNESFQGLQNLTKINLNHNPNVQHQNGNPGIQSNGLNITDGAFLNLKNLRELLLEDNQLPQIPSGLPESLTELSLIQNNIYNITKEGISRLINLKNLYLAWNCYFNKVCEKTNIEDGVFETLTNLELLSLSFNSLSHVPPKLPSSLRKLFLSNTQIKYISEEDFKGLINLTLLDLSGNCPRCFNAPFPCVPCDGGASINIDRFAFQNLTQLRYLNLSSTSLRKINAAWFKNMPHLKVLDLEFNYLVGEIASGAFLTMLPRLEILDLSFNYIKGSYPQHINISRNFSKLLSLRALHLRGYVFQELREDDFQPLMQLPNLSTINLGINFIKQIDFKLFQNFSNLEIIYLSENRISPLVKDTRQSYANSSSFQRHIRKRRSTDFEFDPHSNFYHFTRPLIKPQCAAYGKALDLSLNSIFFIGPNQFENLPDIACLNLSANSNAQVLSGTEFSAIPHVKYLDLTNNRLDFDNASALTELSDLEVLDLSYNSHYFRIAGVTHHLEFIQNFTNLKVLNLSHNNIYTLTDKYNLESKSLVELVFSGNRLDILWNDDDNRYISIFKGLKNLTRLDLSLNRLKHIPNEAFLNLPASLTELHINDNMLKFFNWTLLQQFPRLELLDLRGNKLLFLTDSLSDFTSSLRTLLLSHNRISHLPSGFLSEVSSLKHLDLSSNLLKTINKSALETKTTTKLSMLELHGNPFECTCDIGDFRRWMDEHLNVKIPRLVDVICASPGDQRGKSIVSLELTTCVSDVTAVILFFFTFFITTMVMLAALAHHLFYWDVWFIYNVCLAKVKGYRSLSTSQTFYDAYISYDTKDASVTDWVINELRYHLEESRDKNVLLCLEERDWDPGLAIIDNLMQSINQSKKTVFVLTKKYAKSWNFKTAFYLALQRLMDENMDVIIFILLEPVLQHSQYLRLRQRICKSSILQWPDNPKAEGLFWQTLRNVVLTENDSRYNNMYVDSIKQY
Method: as §1

TLR6 = TLR6 (Homo sapiens, UniProt O60603+Q9Y2C9); experiment: Activity on TLR6; settings: concentrations up to 25 μM
Method: as §1

TLR4 = TLR4 (Homo sapiens, UniProt O00206+Q9Y6Y9); experiment: Activity on TLR4; settings: concentrations up to 25 μM
Method: as §1

TLR3 = target: T2, TLR3 (Homo sapiens, UniProt O15455); experiment: Activity on TLR3; settings: concentrations up to 25 μM
T2 sequence (O15455 24-904): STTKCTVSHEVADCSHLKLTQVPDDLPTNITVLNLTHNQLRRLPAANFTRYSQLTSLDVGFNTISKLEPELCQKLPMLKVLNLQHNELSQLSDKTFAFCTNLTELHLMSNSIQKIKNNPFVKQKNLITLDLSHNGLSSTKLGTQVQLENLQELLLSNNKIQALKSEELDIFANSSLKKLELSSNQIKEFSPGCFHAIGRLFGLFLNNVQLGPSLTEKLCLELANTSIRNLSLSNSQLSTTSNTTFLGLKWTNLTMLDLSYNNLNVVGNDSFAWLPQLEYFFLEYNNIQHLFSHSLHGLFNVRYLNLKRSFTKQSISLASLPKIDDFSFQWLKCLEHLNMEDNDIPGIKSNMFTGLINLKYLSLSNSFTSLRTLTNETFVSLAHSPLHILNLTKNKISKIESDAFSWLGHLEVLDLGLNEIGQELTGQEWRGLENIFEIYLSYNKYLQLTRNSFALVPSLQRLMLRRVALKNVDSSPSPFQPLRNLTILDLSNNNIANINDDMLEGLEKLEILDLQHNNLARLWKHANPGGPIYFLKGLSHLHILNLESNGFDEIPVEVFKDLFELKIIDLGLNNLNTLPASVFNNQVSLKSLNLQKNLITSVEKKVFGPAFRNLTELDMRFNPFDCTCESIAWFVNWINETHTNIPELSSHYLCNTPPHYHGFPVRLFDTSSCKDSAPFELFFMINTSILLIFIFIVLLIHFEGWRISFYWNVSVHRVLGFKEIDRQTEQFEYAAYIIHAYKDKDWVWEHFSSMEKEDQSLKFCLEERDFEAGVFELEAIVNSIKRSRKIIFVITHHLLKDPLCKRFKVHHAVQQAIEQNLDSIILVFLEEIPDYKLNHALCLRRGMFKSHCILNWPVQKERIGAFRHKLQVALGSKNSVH
Method: as §1

TLR2, sequence (O60603 21-784, species assumed): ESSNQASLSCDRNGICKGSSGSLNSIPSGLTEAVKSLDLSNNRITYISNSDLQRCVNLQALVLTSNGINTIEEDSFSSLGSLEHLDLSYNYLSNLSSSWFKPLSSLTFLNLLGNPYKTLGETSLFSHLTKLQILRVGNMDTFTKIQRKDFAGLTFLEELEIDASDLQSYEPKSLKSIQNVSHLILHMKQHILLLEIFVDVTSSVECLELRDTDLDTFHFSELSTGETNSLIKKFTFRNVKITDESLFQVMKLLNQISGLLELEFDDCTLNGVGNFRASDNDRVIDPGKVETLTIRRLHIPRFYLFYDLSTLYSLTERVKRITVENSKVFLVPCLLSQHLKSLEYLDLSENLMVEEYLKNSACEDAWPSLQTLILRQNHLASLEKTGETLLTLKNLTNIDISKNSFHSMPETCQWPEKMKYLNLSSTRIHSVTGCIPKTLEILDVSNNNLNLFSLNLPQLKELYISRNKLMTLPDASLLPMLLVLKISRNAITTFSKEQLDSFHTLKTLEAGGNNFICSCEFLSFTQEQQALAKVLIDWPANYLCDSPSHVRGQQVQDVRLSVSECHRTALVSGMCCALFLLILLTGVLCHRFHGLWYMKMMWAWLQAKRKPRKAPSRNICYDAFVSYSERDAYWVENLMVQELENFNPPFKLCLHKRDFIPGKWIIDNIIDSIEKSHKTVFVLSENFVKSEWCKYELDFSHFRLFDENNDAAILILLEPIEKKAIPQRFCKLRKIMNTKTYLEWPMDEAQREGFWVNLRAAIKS
TLR6, sequence (Q9Y2C9 32-796, species assumed): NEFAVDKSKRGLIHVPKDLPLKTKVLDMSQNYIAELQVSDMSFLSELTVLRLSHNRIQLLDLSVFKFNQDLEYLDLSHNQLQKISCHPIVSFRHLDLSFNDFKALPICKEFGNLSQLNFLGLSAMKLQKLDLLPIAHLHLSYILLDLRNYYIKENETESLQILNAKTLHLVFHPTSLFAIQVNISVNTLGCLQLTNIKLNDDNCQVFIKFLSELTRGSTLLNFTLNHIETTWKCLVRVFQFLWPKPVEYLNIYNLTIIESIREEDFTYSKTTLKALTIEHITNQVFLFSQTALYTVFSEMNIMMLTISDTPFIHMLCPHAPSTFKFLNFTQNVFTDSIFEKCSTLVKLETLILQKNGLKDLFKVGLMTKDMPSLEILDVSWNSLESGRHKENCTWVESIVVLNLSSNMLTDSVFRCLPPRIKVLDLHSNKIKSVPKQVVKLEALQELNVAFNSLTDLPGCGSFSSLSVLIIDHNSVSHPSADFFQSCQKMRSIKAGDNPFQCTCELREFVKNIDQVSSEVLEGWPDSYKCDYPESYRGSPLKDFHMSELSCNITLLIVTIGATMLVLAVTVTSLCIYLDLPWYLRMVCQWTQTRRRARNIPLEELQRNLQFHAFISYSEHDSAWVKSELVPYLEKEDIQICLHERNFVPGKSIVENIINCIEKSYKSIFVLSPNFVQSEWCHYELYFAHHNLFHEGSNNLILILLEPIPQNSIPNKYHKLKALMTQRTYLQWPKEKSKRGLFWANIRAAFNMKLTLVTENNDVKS
TLR6, sequence (O60603 21-784, species assumed): as the sequence (O60603 21-784, species assumed) above
TLR4, sequence (O00206 24-839, species assumed): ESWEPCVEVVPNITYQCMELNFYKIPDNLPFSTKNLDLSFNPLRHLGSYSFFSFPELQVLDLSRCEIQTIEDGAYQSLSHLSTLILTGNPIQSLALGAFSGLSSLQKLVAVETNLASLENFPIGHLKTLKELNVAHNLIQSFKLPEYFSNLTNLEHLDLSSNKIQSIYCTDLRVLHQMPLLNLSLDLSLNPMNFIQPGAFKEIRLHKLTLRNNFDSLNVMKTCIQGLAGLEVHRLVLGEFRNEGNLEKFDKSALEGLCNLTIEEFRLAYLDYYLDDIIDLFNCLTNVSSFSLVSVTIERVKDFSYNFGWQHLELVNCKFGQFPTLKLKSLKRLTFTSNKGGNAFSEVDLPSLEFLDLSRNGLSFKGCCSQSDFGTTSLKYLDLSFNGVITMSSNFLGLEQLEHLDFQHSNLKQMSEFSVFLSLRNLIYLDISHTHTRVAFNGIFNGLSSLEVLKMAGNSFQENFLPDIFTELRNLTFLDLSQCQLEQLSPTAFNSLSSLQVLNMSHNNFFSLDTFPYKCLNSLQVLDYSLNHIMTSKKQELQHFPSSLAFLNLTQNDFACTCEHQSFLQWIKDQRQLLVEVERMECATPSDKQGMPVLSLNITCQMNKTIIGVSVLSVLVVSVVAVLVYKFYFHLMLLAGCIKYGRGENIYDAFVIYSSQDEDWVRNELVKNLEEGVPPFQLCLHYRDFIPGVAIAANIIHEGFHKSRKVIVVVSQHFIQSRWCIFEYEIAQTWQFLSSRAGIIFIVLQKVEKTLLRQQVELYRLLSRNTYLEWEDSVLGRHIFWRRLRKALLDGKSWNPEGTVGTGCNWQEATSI
TLR4, sequence (Q9Y6Y9 17-160 limits assumed, species assumed): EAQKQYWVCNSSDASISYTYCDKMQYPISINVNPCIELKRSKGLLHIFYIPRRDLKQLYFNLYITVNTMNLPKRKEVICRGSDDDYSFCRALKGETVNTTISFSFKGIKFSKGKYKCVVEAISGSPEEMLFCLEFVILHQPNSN

- activity on TLR2 (TLR2): no activity
- EC50 (TLR8): 0.07 µM
- activity on TLR6 (TLR6): no activity
- activity on TLR4 (TLR4): no activity
- activity on TLR3 (TLR3): no activity
Compound: CCCN(CCC)C(=O)C1=Cc2ccc(-c3ccc(C(=O)N4CCCC4)cc3)cc2N=C(N)C1 [VTX-2337, 2-amino-N,N-dipropyl-8-(4-(pyrrolidine-1-carbonyl)phenyl)-3H-benzo[b]azepine-4-carboxamide]

Source: patent US20120219615A1, “Therapeutic Use of a TLR Agonist and Combination Therapy” (The Trustees of the University of Pennsylvania, priority 2010, published 2012)
